# From patent US6828450B2, “Triptycene analogs” (Kansas State University Research Foundation, priority 2000, dated 2004)
# “Also recorded” adds a separate entry of the source. Like-named read-outs stand apart in the source and are kept apart here.
# Key:
# L1210 cells [1] = assay: L1210 tumor cell proliferation assay (Coulter counter); settings: for concentration giving almost total (maximal) inhibition of proliferation and viability: growth and viability; for IC50: read-out: IC50, inhibition of L1210 cell proliferation; for inhibition at 0.041 µM: read-out: % inhibition of L1210 cell proliferation
# Experimental: FIG. 1. […] For tumor cell growth and viability, L1210 cells were respectively seeded in triplicate at initial densities of 1×10^4 and 1.11×10^4 cells/0.5 ml/well in RPMI 1640 medium containing 7.5% FCS and penicillin (100 IU/ml)-streptomycin (100 μg/ml), and grown for 4 days in the presence or absence (control) of 256 nM concentrations of the indicated compounds in a humidified incubator at 37° C. with 5% CO2 in air. Cell density was monitored using a Coulter counter. […] The ability of viable cells/0.5 ml to bioreduce 0.1 ml of MTS:PMS (20:1) reagent over a 3-h incubation period at 37° C. was assessed by measuring the absorbamce of the water-soluble formazan products at A490 nm.
# FIG. 3. […] The protocol of the experiment was identical to that of FIG. 1. […] Drug concentrations are plotted on a logarithmic scale.
# TT0 was purchased from Aldrich (Milwaukee, Wis.). All solutions of synthetic TTs and tricyclic pyrone H10, vincristine (VCR; a gift from Lilly Researeh Laboratories, Indianapolis, Ind.) and camptothecin (CPT; from Sigma Chemical Co., St Louis, Mo.) were dissolved and diluted in dimethyl sulfoxide (DMSO), whereas daunomycin (DAU) (from Sigma) solutions were prepared in 0.1 M potassium phosphate buffer, pH 7.4, containing 0.9% NaCl. Suspension cultures of murine L1210 lymphocytic leukemia cells (American Type Culture Collection, Rockville, Md.) were maintained in continuous exponential growth by twice-a-week passage in RPMI 1640 medium supplemented with 7.5% fortified bovine calf serum (FCS; HyClone Laboratories, Logan, Utah) and penicillin (100 IU/ml)-streptomycin (100 μg/ml), and incubated in the presence or absence of drugs at 37° C. in a humidified atmosphere containing 5% CO2. […] Control cells incubated in the absence of drugs were similarly treated with vehicle only and, in every experiment, all incubates received the same volume of solvent. For drug removal, incubates were spun at 200×g for 10 min, drug-containing supernatants were discarded, and intact cells were washed thrice with 1 ml of the above RPMI 1640 culture medium and resuspended in 0.5 ml of fresh medium for further incubation.
# For tumor cell growth, L1210 cells were resuspended in fresh FCS-containing RPMI 1640 medium, plated at an initial density of 1×10^4 cells/0.5 ml, and incubated in 48-well Costar cell culture plates (Costar, Cambridge, Mass.). Except when otherwise specified, cells were grown for 4 days in the presence or absence of drugs and their density was monitored every 24 h using a Coulter counter (Coulter Electronics, Luton Beds, UK).
# L1210 cells [2] = assay: Nucleoside transport (30-sec cellular uptake) in L1210 cells; type: cell-based, murine
# Experimental: FIG. 10. Concentration-dependent inhibition of nucleoside transport by the TT analog TT2 in L1210 cells in vitro. […] After washing thrice with PBS, intact cell pellets were harvested by centrifugation, incubated for 30 min in 1 ml of HLB containing 0.2% Triton X-100, and these lysates were mixed with scintillation cocktail and counted to estimate the cellular uptake of ^3H-thymidine. Results are expressed as % of ^3H-thymidine transported into vehicle-treated control cells over 30 sec (15,031±872 cpm; 100±6%; striped area).
# FIG. 11. Comparison of the inhibitory effects of novel TT analogs on DNA synthesis (open) and nucleoside transport (striped) in L1210 cells in vitro. The cellular uptake of ^3H-thymidine (striped) and the rate of ^3H-thymidine incorporation into DNA (open) were determined in cells (1.38×10^6/0.5 ml of RPMI 1640 medium) respectively preincubated at 37° C. for 15 or 90 min in the presence or absence (control) of 7 μM concentrations of the indicated compounds. For the cellular transport of nucleosides, preincubated cells were then exposed to 1 μCi of ^3H-thymidine for 30 sec at 37° C. Results are expressed as % of ^3H-thymidine transported into vehicle-treated control cells over 30 sec (15,539±1,767 cpm; 100±11%; striped control). For DNA synthesis, preincubated cells were then pulse-labeled with 1 μCi of ^3H-thymidine for an additional 30 min at 37° C. Results are expressed as % of ^3H-thymidine incorporation into DNA in vehicle-treated control cells over 30 min (28,505±2,594 cpm; 100±9%; open control). The blank value (1,075±171 cpm) for cells incubated and pulse-labeled at 2° C. with 1 μCi of ^3H-thymidine has been substracted from the results. Bars: means±SD (n=3). ^aNot different from TT3, TT7, TT9 and TT11; ^bP<0.01, smaller than TT1 but not different from TT13; ^cnot different from control; ^dP<0.025, greater than TT1; ^eP<0.05, smaller than control.
# FIG. 12. Irreversibility of the inhibitory effects of the novel TT analog TT2 on DNA synthesis (open) and nucleoside transport (striped) in L1210 cells in vitro. […] The cellular uptake of ^3H-thymidine (striped) and the rate of ^3H-thymidine incorporation into DNA (open) were determined in cells (1.64×10^6/0.5 ml of RPMI 1640 medium) respectively preincubated at 37° C. for 15 or 60 min in the presence or absence (control) of 10 and 25 μM TT2 or 25 μM H10. The protocol of the experiments and the determination of the results were identical to those of FIGS. 9 and 10, except that, after preincubation, either the drugs were maintained in the culture medium (+) or the cells were spun, washed, and resuspended in fresh medium in order to remove the drugs (−). After preincubation, vehicle-treated controls were similarly spun and washed. For the cellular transport of nucleosides, preincubated cells were then exposed, in the presence (+) or absence (−) of TT2 or H10, to 1 μCi of ^3H-thymidine for 30 sec at 37° C. Results are expressed as % of ^3H-thymidine transported into vehicle-treated control cells over 30 sec (11,054±754 cpm; 100±7%; striped control+; 14,486±1,260 cpm; 100±9%; striped control−). For DNA synthesis, preincubated cells were then pulse-labeled with 1 μCi of ^3H-thymidine for an additional 30 min at 37° C. in the presence (+) or absence (−) of TT2 or H10. Results are expressed as % of ^3H-thymidine incorporation into DNA in vehicle-treated control cells over 30 min (34,052±1,566 cpm; 100±5%; open control+; 28,811±2,506 cpm; 100±9%; open control−). The blank value (1,328±86 cpm) for cells incubated and pulse-labeled at 2° C. with 1 μCi of ^3H-thymidine has been substracted from the results. Bars: means±SD (n=3).
# L1210 cells (about 1.5×10^6 cells/0.5 ml) were preincubated for 15 min at 37° C. in the presence or absence of TTs and then exposed to 1 μCi of ^3H-thymidine for only 30 sec to assess the cellular uptake of nucleoside over such very short period of time. […]
smiles,measurement,setting,value
"COC(=O)C1=C(C(=O)OC)C[C@H]2C(=O)C3=C(C(=O)[C@H]2C1)C1C2=C(C(=O)[C@H]4CC(C(=O)OC)=C(C(=O)OC)C[C@H]4C2=O)C3c2ccccc21 [TT4, (4aS*,7aR*,11aS*,14aR*)-Tetramethyl 1,4,4a,5,6,7,7a,8,11,11a,12,13,14,14a-tetradecahydro-5,7,12,14-tetraoxo-6,13-[1′,2′]benzenopentacene-2,3,9,10-tetracarboxylate]",inhibitory effect on L1210 cell growth,"L1210 cells [1]; 256 nM, 4 days",inactive
same,effect on nucleoside transport,"L1210 cells [2]; 7 μM, 15 min",alter neither
"COC1=C(Br)C(=O)C2=C(C1=O)C1C3=C(C(=O)C=C(N(C)C)C3=O)C2c2ccccc21 (stereo not drawn) [TT16, 2-Bromo-3-methoxy-6-(dimethylamino)-9,10-dihydro-9,10-[1′,2′]benzenoanthracene-1,4,5,8-tetraone]",potency on cellular transport of adenosine and thymidine compared with TT2,L1210 cells [2]; FIG. 13,as potent as TT2
"COC1=CC(=O)C2=C(C1=O)C1C3=C(C(=O)C=CC3=O)C2c2ccccc21 (stereo not drawn) [TT2, 2-Methoxy-9,10-dihydro-9,10-[1′,2′]benzenoanthracene-1,4,5,8-tetraone]",times DAU is more cytostatic/cytotoxic than TT2,L1210 cells [1],3.5-6 times
same,% inhibition of L1210 cell proliferation,"L1210 cells [1]; 256 nM TT2, day 2",44%
same,% inhibition of L1210 cell growth (cytostatic),"L1210 cells [1]; 256 nM, 4 days, 0.256 µM",68%
same,concentration giving almost total (maximal) inhibition of proliferation and viability,L1210 cells [1]; day 4,≥ 640 nM
same,IC50,L1210 cells [1]; day 2,300 nM
same,IC50,L1210 cells [1]; day 4,150 nM
same,% inhibition of nucleoside transport,"L1210 cells [2]; 10 μM TT2, 15-min preincubation",67%
same,effect on nucleoside transport,L1210 cells [2]; 25 μM TT2,totally inhibited
same,% inhibition of nucleoside transport,"L1210 cells [2]; 25 μM TT2, 15-min preincubation",93%
same,reversibility of the inhibition of nucleoside transport upon drug removal,"L1210 cells [2]; 10 and 25 μM TT2 or 25 μM H10, 15-min preincubation",irreversible
same,IC50,"L1210 cells [2]; 15-min pretreatment, 30-sec uptake, read-out: IC50, inhibition of cellular transport of nucleosides",6000 nM
"COc1cccc2c1C(=O)c1c(O)c3c(c(O)c1C2=O)C[C@@](O)(C(C)=O)C[C@@H]3O[C@H]1C[C@H](N)[C@H](O)[C@H](C)O1 [DAU, daunomycin, reference compound]",times DAU is more cytostatic than TT2,"L1210 cells [1]; L1210, from IC50 values",about 6 times
same,times DAU is more cytostatic/cytotoxic than TT2,"L1210 cells [1]; L1210, growth and viability, 4 days",3.5-6 times
same,inhibition at 0.041 µM,"L1210 cells [1]; Mus musculus, L1210, 48 h",42%
same,IC50,"L1210 cells [1]; Mus musculus, L1210, 48 h",50 nM
same,inhibition at 0.041 µM,"L1210 cells [1]; Mus musculus, L1210, 96 h",77%
same,IC50,"L1210 cells [1]; Mus musculus, L1210, 96 h",25 nM
same,concentration giving almost total (maximal) inhibition of proliferation and viability,L1210 cells [1]; day 4,102 nM
same,effect of DAU on cellular transport of nucleosides,"L1210 cells [2]; 15-min treatment, 30-sec uptake, 10 μM DAU",inactive; also recorded: totally unable
"COC(=O)C1=C(C(=O)OC)C[C@H]2[C@@H](C1)[C@@H](O)C1=C(C3C4=C(C1c1ccccc13)[C@@H](O)[C@H]1CC(C(=O)OC)=C(C(=O)OC)C[C@H]1[C@H]4O)[C@H]2O [TT12, (4aS*,5S*,7R*,12S*,14R*,7aR*,11aS*,14aR*)-Tetramethyl 1,4,4a,5,6,7,7a,8,11,11a,12,13,14,14a-tetradecahydro-5,7,12,14-tetrahydroxy-6,13-[1′,2′]benzenopentacene-2,3,9,10-tetracarboxylate]",inhibitory effect on L1210 cell growth,"L1210 cells [1]; 256 nM, 4 days",inactive
same,effect on nucleoside transport,"L1210 cells [2]; 7 μM, 15 min",alter neither
